This is an account of results in patent US20190387748A1, “COMPOSITIONS AND RELATED METHODS FOR AGRICULTURE” (priority 2017, published 2019).

SMILES strings stand for the structures. Entries after “also recorded” stand apart in the source; their conditions may differ.

Holding throughout (assay type): in vivo
Experiment [1] concerns Acyrthosiphon pisum aphids. The experiment is described as follows: Aphid developmental stage monitoring. On the procedure:
(§1) In addition, the developmental stage (1st, 2nd, 3rd, 4th, 5th instar) was determined daily throughout the experiment. Once an aphid reached the 4th instar stage, they were given their own artificial feeding system in a deep petri dish so that fecundity could be monitored once they reached adulthood.
Each treatment group received approximately the same number of individuals from each of the collection plant. For each treatment, 20 aphids were placed onto each leaf. Aphids were monitored daily for survival and dead aphids were removed when they were discovered. In addition, the developmental stage (1st, 2nd, 3rd, 4th, 5th instar, and 5R, representing a reproducing 5th instar) was determined daily throughout the experiment. Pictures of aphids were taken throughout the experiment to evaluate size differences between treatment groups.
(Vroma vicia faba from Johnny's Selected Seeds) in a climate-controlled incubator (16 h light/8 h dark photoperiod; 60±5% RH; 25±2° C.). Prior to being used for aphid rearing, fava bean plants were grown in potting soil at 24° C. with 16 h of light and 8 h of darkness. To limit maternal effects or health differences between plants, 5-10 adults from different plants were distributed among 10 two-week-old plants, and allowed to multiply to high density for 5-7 days. […] Aphids were monitored daily for survival and dead aphids were removed from the deep petri dish when they were discovered. In addition, the developmental stage (1st, 2nd, 3rd, 4th, 5th and 5R (5th that has reproduced) instar) was determined daily throughout the experiment.
In addition, the developmental stage (1st, 2nd, 3rd, 4th, 5th, and 5R (5th that has reproduced) instar) was determined daily throughout the experiment.
In addition, the developmental stage (1st, 2nd, 3rd, 4th, 5th, and 5R (5th instar aphids that are reproducing) instar) was determined daily throughout the experiment.
In addition, the developmental stage (1st, 2nd, 3rd, 4th, and 5th instar) was determined daily throughout the experiment.
(§2) In addition, the developmental stage (1st, 2nd, 3rd, 4th, 5th, and 5R (5th that has reproduced) instar) was determined daily throughout the experiment. Once an aphid reached the 4th instar stage, they were given their own artificial feeding system in a deep petri dish so that fecundity could be monitored once they reached adulthood.
For each treatment, 30 aphids were placed onto each leaf in triplicate. […] Aphids were monitored daily for survival and dead aphids were removed from the deep petri dish when they were discovered. In addition, the developmental stage (1st, 2nd, 3rd, 4th, 5th, and 5R (5th instar aphids that are reproducing) instar) was determined daily throughout the experiment. […]

Experiment [2] relates to Acyrthosiphon pisum aphids. Briefly: Aphid fecundity (offspring production). The conditions noted are these: 10 or 100 uM pantothenol. On the procedure: as §1
(§3) For adult aphids, new nymphs were counted daily and then discarded. At the end of the experiments, fecundity was determined as the mean number of offspring produced daily once the aphid reached adulthood. Pictures of aphids were taken throughout the experiment to evaluate size differences between treatment groups.
as §2
(§4) For adult aphids, new nymphs were counted daily and then discarded. At the end of the experiments, fecundity was measured in two ways: 1) the mean day at which the first offspring for the treatment group was determined and 2) the mean number of offspring produced daily once the aphid reached adulthood. […]
In addition, the developmental stage (1st, 2nd, 3rd, 4th, 5th instar) was determined daily throughout the experiment. […]

In experiment [3] the test system is Acyrthosiphon pisum aphids. The experiment is described as follows: Aphid body area (size) measurement. The following applies: 10 or 100 uM pantothenol, through plants; by 3 days post-treatment. On the procedure: as §3
Each treatment group received approximately the same number of individuals from each of the collection plant. For each treatment, 20 aphids were placed onto each leaf. Aphids were monitored daily for survival and dead aphids were removed when they were discovered. In addition, the developmental stage (1st, 2nd, 3rd, 4th, 5th instar, and 5R, representing a reproducing 5th instar) was determined daily throughout the experiment. […]
as §4
Aphids LSR-1 (which harbor only Buchnera), Acyrthosiphon pisum were grown on fava bean plants (Vroma vicia faba from Johnny's Selected Seeds) in a climate-controlled incubator (16 h light/8 h dark photoperiod; 60±5% RH; 25±2° C.). […] Aphids were monitored daily for survival and dead aphids were removed from the deep petri dish when they were discovered. […]

For `CC(C)(CO)[C@@H](O)C(=O)NCCCO` [pantothenol], the Aphid development entry in experiment [1] (eNASCO 1st and 2nd instar, 10 or 100 uM pantothenol in artificial diet without essential amino acids, through plants) is given as “delayed aphid development; also recorded: Development was delayed”; in experiment [1] (eNASCO first instar, leaf coating, 100 μl of 10 uM pantothenol in 0.025% Silwet L-77), “did not affect aphid development; also recorded: matured at similar rates up to two days post-treatment”. In experiment [2], the Aphid reproduction entry is recorded as “loss of reproduction”. Besides, the “Aphid area (body size)” value in experiment [3] is “drastic effect of pantothenol treatment; also recorded: smaller in area than untreated controls”.
